According to patent US8080582B2, “Derivatives of 8-epiblechnic acid and their effects on down-regulation of endothelin (ETA) receptor mRNA” (ScinoPharm Taiwan Ltd., priority 2008, dated 2011):
“Also recorded” adds a separate entry of the source. Read-outs that look alike come from different tables or passages of the source.

How the values were obtained:
Assay type in all cases: cell-based
[1] = test system: breast cancer cells (MCF-7); experiment: MTT cell viability, breast cancer cells; conditions: MCF-7, different concentrations (0-0.5 mM), 48 hrs
Protocol: (§1) The cells (1×10^5 cells/well in 24-well plates) were cultured for 24 hrs. Different concentrations of Sal-B and its analogs (0, 50, 100, 150, 200, 250 μg/ml) were added to treat the cells. After treating for 48 hrs, 100 μl MTT solution was added to each well, and the plate was placed in an incubator for 1-4 hrs. After adding 400 μl DMSO to treat the cells for 30 min., 200 μl samples were collected and placed in a 96-well plate to conduct the absorption measurement at 550 nm.
(§2) Cancer cells were treated with Sal-B and EBA at concentrations of 0, 0.1, 0.2, 0.3, 0.4, 0.5 mM. After treating for 48 hrs, MTT was added, and then allowed to react for 3 hrs at 37° C. After that, DMSO was added and allowed to react for 30 min., the OD570 absorption values were measured. Cell viability was above 80% when nasopharyngeal cancer cells (Hone-1) were treated with […] Sal-B and EBA. […] But the cell viability remained above 70% for treating with 0.1 mM and 0.2 mM EBA. Similar results were obtained when prostate cancer cells (PC-3) were treated with the drugs: Cell viability was above 80% for treating PC-3 cells with 0.2 mM Sal-B or EBA.

[2] = test system: endothelin receptor mRNA expression; experiment: PCR of endothelin receptor mRNA expression in vascular smooth muscle cells; conditions: 100 μg/ml, 48 hrs, PCR 25 or 30 reaction cycles
Protocol: Extraction of cellular RNA: Subculturing smooth muscle cells to 100-mm culture dishes. After the cells had filled the culture dishes, Sal-B and its analogs were added to treat the cells for 48 hrs. After that, 1×PBS solutions were added to wash the cells three times. After adding 1 ml TRIzol, the cells were scraped off and placed in 1.5 ml micro-centrifuge tubes. Following the addition of 0.2 ml chloroform to each tube, the tubes were shaken, left at room temperature for 3 min., and run in a centrifuge at 12,000 rpm for 15 min. The supernatant liquid was removed and the cells placed in new micro-centrifuge tubes. After adding an amount of isopropyl alcohol equivalent to one-half of the volume of the supernatant liquid, and mixing until homogeneous, the samples were allowed to stand at room temperature for 10 min. The supernatant liquid was removed after centrifugation at 12,000 rpm for 10 min. 1 ml 70% alcohol was added to wash out salts, followed by centrifugation for 5 min. and removal of supernatant liquid. The samples were dissolved in 50 μl DEPC-H2O after drying.
(1) cDNA synthesis: 1 μl Random hexamer primer (20 μM) and 1 μl dNTP(10 mm) were added to 3 μg RNA, which was allowed to react at 65° C. for 5 min., and then placed on ice promptly. […]

[3] = test system: normal mammary gland cell line (A1N4); experiment: Cytotoxicity test on normal mammary gland cells
Protocol: as §1

[4] = test system: prostate cancer cells (PC-3); experiment: MTT cell viability, prostate cancer cells; conditions: for Cell viability at higher concentrations: PC-3, 0.3 mM (or higher), 48 hrs, MTT
Protocol: as §1, §2
MTT testing was employed to observe the viability of cancer cells after treating with Sal-B and the six synthetic analogs.

ETAR protein expression = experiment: Western blot of ETAR protein expression in vascular smooth muscle cells; conditions: 100 μg/ml, 48 hrs
Protocol: The smooth muscle cells (5×10^5 cells in 35 mm culture dish) were treated with Sal-B and its analogs for 48 hrs, and then a proteinase inhibitor solution was used to collect proteins from the cells.
The protein concentrations in the samples were calculated by using BSA as the standards to construct a standard curve. After mixing Bradford Protein assay reagent evenly with the standards or the samples, the OD595 absorption values were measured. Standard curve was constructed by plotting OD595 values of the BSA standards versus their concentrations. The protein concentrations of the samples were calculated from the standard curve.
Bio-Rad's Mini-Protean III Dual Slab Cell instrument was used. A 12% polyacrylamide separating gel solution was prepared and placed into a electrophoretic gel preparation device. Deionized water was added to flat the surface of the separating gel solution, and the water was poured off after the gel had coagulated. A stacking gel solution containing 5% polyacrylamide was added and then a comb was inserted. The comb was removed after the stacking gel had coagulated, and the gel was placed into an upright electrophoresis tank. A suitable amount of running buffer was added, and then the protein samples were loaded into the wells of stacking gel layer. […]

Row | Molecule | Effect on cancer cell viability [1] | Endothelin receptor mRNA expression compared with control [2] | Cytotoxicity to normal cells ([3]; A1N4 normal mammary gland cells, FIG. 2) | Cell viability at higher concentrations [4] | Viability of PC-3 cells as the concentration is increased ([4]; PC-3, MTT, increasing concentration, FIG. 1) | ETAR protein expression compared with control (ETAR protein expression) | Cytotoxicity to normal cells [3]
1 | O=C(/C=C/c1ccc(O)c2c1[C@H](C(=O)O[C@H](Cc1ccc(O)c(O)c1)C(=O)[O-])[C@@H](c1ccc(O)c(O)c1)O2)O[C@H](Cc1ccc(O)c(O)c1)C(=O)[O-].[Mg+2] [Sal-B, magnesium lithospermate B] | no significant effect on cancer cell viability | reduced as comparing with the control | no significant difference was observed on the cytotoxicity results; also recorded: not highly toxic to normal cells | the cell viability was reduced | reduced as the concentration of Sal-B was increased | significantly reduced | –
2 | epiblechnic acid [EBA] | no significant effect on cancer cell viability | reduced as comparing with the control | – | did not significantly reduce the cell viability | – | significantly reduced | no significant difference was observed on the cytotoxicity results
